According to PubChem BioAssay (NCI):
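1) Cells in 96-well plates. 2) Compound, 48 h, 5 concentrations. 3) Linear interpolation between surrounding doses. 4) Unreached endpoint = highest concentration. The concentration for full growth arrest is given as TGI.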

Experiments:
Experiment in all cases: inhibition of tumour cell growth, NCI panel, 48 h
M14 melanoma = tested on: M14 melanoma
NCI-H522 lung = tested on: NCI-H522 lung
TK-10 renal = tested on: TK-10 renal
COLO 205 colon = tested on: COLO 205 colon
MCF7 breast = tested on: MCF7 breast
LOX IMVI melanoma = tested on: LOX IMVI melanoma
NCI-H226 lung = tested on: NCI-H226 lung
T-47D breast = tested on: T-47D breast
UACC-62 melanoma = tested on: UACC-62 melanoma
HOP-92 NSCLC = tested on: HOP-92 NSCLC
SN12C renal = tested on: SN12C renal
NCI-H23 lung = tested on: NCI-H23 lung
IGROV1 ovarian = tested on: IGROV1 ovarian
SK-MEL-28 melanoma = tested on: SK-MEL-28 melanoma
NCI/ADR-RES ovarian = tested on: NCI/ADR-RES ovarian
A549 NSCLC = tested on: A549 NSCLC
SNB-19 CNS = tested on: SNB-19 CNS
786-0 renal = tested on: 786-0 renal
SF-268 CNS = tested on: SF-268 CNS
MDA-MB-231 breast = tested on: MDA-MB-231 breast
SK-MEL-5 melanoma = tested on: SK-MEL-5 melanoma
U251 CNS = tested on: U251 CNS
HS 578T breast = tested on: HS 578T breast
A498 renal = tested on: A498 renal
RPMI-8226 leukemia = tested on: RPMI-8226 leukemia
ACHN renal = tested on: ACHN renal
MDA-MB-435 = tested on: MDA-MB-435
MDA-N = tested on: MDA-N
HCT-116 colon = tested on: HCT-116 colon
OVCAR-4 ovarian = tested on: OVCAR-4 ovarian
MALME-3M melanoma = tested on: MALME-3M melanoma
NCI-H460 lung = tested on: NCI-H460 lung
SK-OV-3 ovarian = tested on: SK-OV-3 ovarian
SF-295 CNS = tested on: SF-295 CNS
OVCAR-8 ovarian = tested on: OVCAR-8 ovarian
UO-31 renal = tested on: UO-31 renal
SNB-75 CNS = tested on: SNB-75 CNS
K-562 leukemia = tested on: K-562 leukemia
RXF 393 renal = tested on: RXF 393 renal
MOLT-4 leukemia = tested on: MOLT-4 leukemia
HT29 colon = tested on: HT29 colon
KM12 colon = tested on: KM12 colon
SW-620 colon = tested on: SW-620 colon
OVCAR-5 ovarian = tested on: OVCAR-5 ovarian
PC-3 prostate = tested on: PC-3 prostate
SK-MEL-2 melanoma = tested on: SK-MEL-2 melanoma
OVCAR-3 ovarian = tested on: OVCAR-3 ovarian
DU-145 prostate = tested on: DU-145 prostate
SF-539 CNS = tested on: SF-539 CNS
CAKI-1 renal = tested on: CAKI-1 renal
HOP-62 NSCLC = tested on: HOP-62 NSCLC

Measured: TGI

O=C1Cc2c([nH]c3ccc(Cl)cc23)-c2ccccc2N1
not listed: K-562 leukemia | RXF 393 renal | MOLT-4 leukemia | HT29 colon | KM12 colon | SW-620 colon | OVCAR-5 ovarian | PC-3 prostate | SK-MEL-2 melanoma | OVCAR-3 ovarian | DU-145 prostate | SF-539 CNS | CAKI-1 renal | HOP-62 NSCLC
> 100 µM: all other assays above

CNC(=O)CNC(=O)CCC(=O)OC
not listed: LOX IMVI melanoma | NCI-H226 lung | HOP-92 NSCLC | IGROV1 ovarian | HS 578T breast | RPMI-8226 leukemia | MALME-3M melanoma | SNB-75 CNS
> 100 µM: all other assays above
